The term IC50 denotes the point on the concentration scale where inhibition reaches its midpoint. The term inhibition denotes the percentage by which the read-out fell short of the control.

The subject of one assay is SW620 tumor organoids. Nature of the assay: Tumor organoid cytotoxicity (CellTiter-Glo 3D). The note with it: Homo sapiens. On the technique in general: In ATP-based viability assays light output follows the ATP content of the culture.
In the next assay the test system is HCT116 cells. As to the kind of experiment: Invasion assay (scratch wound in Matrigel). Type of assay: cell-based, human. The note with it: 50% Matrigel, 48-72 h. The protocol: A hallmark of EMT is an increase in CSC stemness and cell invasion. Therefore, the ability of compounds 5-7 to inhibit migration and invasion in HCT-116 and DLD1^CHD1L-OE cells was tested. […] Note that DLD1^CHD1L-OE cells form two times more colonies than HCT-116 cells, which have moderate CHD1L expression. This observation is consistent with CHD1L's oncogenic and tumorigenic properties. Next, using HCT-116 cells with uniform scratch wounds imbedded in 50% Matrigel® matrix (Corning Life Sciences, Corning, N.Y.) cells were treated with CHD1L inhibitors at concentrations indicated and invasion was monitored over 72 h.
HCT116 cells were plated at 60,000 cells/well into an IncuCyte® ImageLock 96-well plate (Sartorius, France) and allowed to attach overnight. A wound was created in all wells using the IncuCyte® WoundMaker then washed 2× with PBS. The plate was brought to 4° C. using a Corning XT Cool Core to avoid polymerization of the Matrigel® matrix (Corning Life Sciences, Corning, N.Y.) during the preparation of the invasion conditions. Wells were coated with 50 μL of 50% Matrigel® matrix in RPMI-1640 media. Plates were centrifuged at 150 rpm at 4° C. for 3 min, using a swing bucket rotor to ensure even matrix coating with no air bubbles. […]

Another assay addresses T1, cat-CHD1L ATPase (Homo sapiens, UniProt Q86WJ1).
T1 construct: inferred from Ni-NTA / imidazole purification; made in house; host or cells: E. coli Rosetta 2 (DE3) pLysS; constructs were a gift from Helena Berglund, Karolinska Institute
T1 sequence (Q86WJ1 16-611 limits assumed): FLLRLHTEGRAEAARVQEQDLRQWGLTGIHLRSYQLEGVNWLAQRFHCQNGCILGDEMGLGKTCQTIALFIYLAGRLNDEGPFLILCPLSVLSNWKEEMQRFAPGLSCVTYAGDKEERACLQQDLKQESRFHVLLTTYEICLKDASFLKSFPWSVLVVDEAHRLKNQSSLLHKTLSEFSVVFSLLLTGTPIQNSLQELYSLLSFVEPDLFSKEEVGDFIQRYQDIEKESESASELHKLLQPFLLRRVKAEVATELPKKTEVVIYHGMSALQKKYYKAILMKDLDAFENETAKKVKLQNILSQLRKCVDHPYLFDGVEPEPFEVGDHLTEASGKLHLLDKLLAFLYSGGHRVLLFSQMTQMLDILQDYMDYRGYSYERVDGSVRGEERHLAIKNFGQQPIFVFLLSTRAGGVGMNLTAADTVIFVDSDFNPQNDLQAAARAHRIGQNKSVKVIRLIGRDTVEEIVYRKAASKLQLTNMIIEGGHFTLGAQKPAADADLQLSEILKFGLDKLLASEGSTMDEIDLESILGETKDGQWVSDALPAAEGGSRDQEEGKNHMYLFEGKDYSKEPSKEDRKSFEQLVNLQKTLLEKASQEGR
Nature of the assay: CHD1L ATPase assay with recombinant catalytic domain (cat-CHD1L). Type of assay: biochemical. The note with it: for inhibition at 20 µM: confirmed HTS hits, HTS at 20 μM, read-out: inhibition against cat-CHD1L ATPase; for IC50: units given with the values (nM, μM), read-out: activity in dose response studies against cat-CHD1L ATPase (IC50, FIG. 1A). In outline:
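Recombinant cat-CHD1L (100 nM) was incubated with 200 nM c-Myc DNA or mononucleosome in 50 mM Tris pH 7.5, 50 mM NaCl, 1 mM DTT and 5% glycerol, with 10 μM ATP, for 1 h at 37 °C. Background came from no-enzyme wells, with 1% DMSO and 10 mM EDTA as controls.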

[1] abbreviates: SW-620, read-out: Tumor Organoid Cytotoxicity IC50 (μM) SW620.

Where two headings read alike, the source gives them in different places.

With `Cc1cc(Nc2ccc(NC(=O)Cc3cccs3)cc2)nc(N2CCCC2)n1` [Compound 6, N-(4-((6-methyl-2-(pyrrolidin-1-yl)pyrimidin-4-yl)amino)phenyl)-2-(thiophen-2-yl)acetamide], the values for the concentration for half-maximal inhibition (IC50) in the assay with SW620 tumor organoids (setting [1]) and on cat-CHD1L ATPase were 4.6 µM and 900 to 5000 nM, respectively. For the same compound, the “inhibition of invasion, in words” value with HCT116 cells (listed as 6.0) was “most potent activity”. Besides, on cat-CHD1L ATPase, the inhibition at 20 µM is more than 50%.
For `Cc1cc(Nc2ccc(NC(=O)c3c[nH]c4ccccc34)cc2)nc(N2CCCC2)n1` [Compound 6.3, N-(4-((6-methyl-2-(pyrrolidin-1-yl)pyrimidin-4-yl)amino)phenyl)-1H-indole-3-carboxamide], the IC50 with SW620 tumor organoids (SW-620, 72 h, read-out: 3 D Cytotoxicity 72 hr IC50 (μM) SW620) came out at 3.6 µM; with SW620 tumor organoids (setting [1]) it was 3.8 µM. The “inhibition of invasion, in words” value in the assay with HCT116 cells is “significantly inhibits HCT116 invasive potential”.
`COc1ccc(-c2nc(S(=O)(=O)c3ccccc3)c(S(C)(=O)=O)o2)cc1` [Compound 5]: at cat-CHD1L ATPase, the inhibition at 20 µM was more than 50% and the IC50 fell in the range of 900 to 5000 nM.

The values are drawn from patent US20230103444A1 (The Regents of the University of Colorado, a Body Corporate, priority 2020, published 2023).
